{"source": "patent US20260167623A1", "about": "(NIKANG THERAPEUTICS, INC., priority 2022, published 2026)", "target": "T1, CDK2 (Homo sapiens, UniProt P24941)", "T1 construct": "High-Throughput Measurement of Cellular Endogenous CDK2; endogenous in cells; host or cells: OVCAR3", "assay": "Inhibition of CDK2: phospho-Rb (S807/811) HTRF measurement in OVCAR3 cells, 24 h", "format": "cell-based", "conditions": "24 h compound treatment, read-out: pRB_OVCAR3_24h", "method_in_brief": "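IC50 came from a four-parameter fit of DMSO-normalized TR-FRET ratios (665/620 nm) reporting phospho-Rb S807/811. Lysates were taken from OVCAR3 cultures treated 24 h with compound (0.3 to 10,000 nM) and incubated 4 h at room temperature with the antibody pair.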", "data": [{"smiles": "Cn1nc(N2CCC(=O)NC2=O)c2ccc(C3CCN(CC4CCN(c5cccc(S(=O)(=O)N6CCC(Nc7ncc(C(F)F)cn7)CC6)c5)CC4)CC3)cc21", "note": "[Example 195, 1-(6-(1-((1-(3-((4-((5-(difluoromethyl)pyrimidin-2-yl)amino)piperidin-1-yl)sulfonyl)phenyl)piperidin-4-yl)methyl)piperidin-4-yl)-1-methyl-1H-indazol-3-yl)dihydropyrimidine-2,4(1H,3H)-dione]", "values": [{"measurement": "IC50", "value": "500 to 2500", "unit": "nM"}]}, {"smiles": "Cn1c(=O)n(C2CCC(=O)NC2=O)c2cccc(C3CCN(Cc4cc(S(=O)(=O)N5CCC(Nc6ncc(OC(F)F)cn6)CC5)ccc4C#N)CC3)c21", "note": "(stereo not shown) [Example 196, 4-((4-((5-(difluoromethoxy)pyrimidin-2-yl)amino)piperidin-1-yl)sulfonyl)-2-((4-(1-(2,6-dioxopiperidin-3-yl)-3-methyl-2-oxo-2,3-dihydro-1H-benzo[d]imidazol-4-yl)piperidin-1-yl)methyl)benzonitrile]", "values": [{"measurement": "IC50", "value": "100 to 500", "unit": "nM"}]}, {"smiles": "N#Cc1ccc(S(=O)(=O)N2CCC(Nc3ncc(Cl)cn3)CC2)cc1N1CCC(CN2CCN(c3ccc4c(c3)CN(C3CCC(=O)NC3=O)C4=O)CC2)CC1", "note": "(stereo not shown) [Example 200, 4-((4-((5-chloropyrimidin-2-yl)amino)piperidin-1-yl)sulfonyl)-2-(4-((4-(2-(2,6-dioxopiperidin-3-yl)-1-oxoisoindolin-5-yl)piperazin-1-yl)methyl)piperidin-1-yl)benzonitrile]", "values": [{"measurement": "IC50", "value": "100 to 500", "unit": "nM"}]}, {"smiles": "CC1(C)C(=O)N(C2CCC(=O)NC2=O)c2cccc(C3CCN(CC4CCN(c5cc(S(=O)(=O)N6CCC(Nc7ncc(Cl)cn7)CC6)ccc5C#N)CC4)CC3)c21", "note": "(stereo not shown) [Example 207, 4-((4-((5-chloropyrimidin-2-yl)amino)piperidin-1-yl)sulfonyl)-2-(4-((4-(1-(2,6-dioxopiperidin-3-yl)-3,3-dimethyl-2-oxoindolin-4-yl)piperidin-1-yl)methyl)piperidin-1-yl)benzonitrile]", "values": [{"measurement": "IC50", "value": "100 to 500", "unit": "nM"}]}, {"smiles": "Cn1nc(-n2ccc(=O)[nH]c2=O)c2ccc(C3CCN(CC4CCN(c5cccc(S(=O)(=O)N6CCC(Nc7ncc(Cl)cn7)CC6)c5)CC4)CC3)cc21", "note": "[Example 210, 1-(6-(1-((1-(3-((4-((5-chloropyrimidin-2-yl)amino)piperidin-1-yl)sulfonyl)phenyl)piperidin-4-yl)methyl)piperidin-4-yl)-1-methyl-1H-indazol-3-yl)pyrimidine-2,4(1H,3H)-dione]", "values": [{"measurement": "IC50", "value": "100 to 500", "unit": "nM"}]}, {"smiles": "Cn1nc(N2CCC(=O)NC2=O)c2ncc(C3CCN(CC4CCN(c5cccc(S(=O)(=O)N6CCC(Nc7ncc(C(F)(F)F)cn7)CC6)c5)CC4)CC3)cc21", "note": "[Example 212, 1-(1-methyl-6-(1-((1-(3-((4-((5-(trifluoromethyl)pyrimidin-2-yl)amino)piperidin-1-yl)sulfonyl)phenyl)piperidin-4-yl)methyl)piperidin-4-yl)-1H-pyrazolo[4,3-b]pyridin-3-yl)dihydropyrimidine-2,4(1H,3H)-dione]", "values": [{"measurement": "IC50", "value": "500 to 2500", "unit": "nM"}]}, {"smiles": "O=C1CCN(c2cnc3c(C4CCN(CC5CCN(c6cccc(S(=O)(=O)N7CCC(Nc8ncc(Cl)cn8)CC7)c6)CC5)CC4)cccn23)C(=O)N1", "note": "[Example 213, 1-(8-(1-((1-(3-((4-((5-chloropyrimidin-2-yl)amino)piperidin-1-yl)sulfonyl)phenyl)piperidin-4-yl)methyl)piperidin-4-yl)imidazo[1,2-a]pyridin-3-yl)dihydropyrimidine-2,4(1H,3H)-dione]", "values": [{"measurement": "IC50", "value": "100 to 500", "unit": "nM"}]}, {"smiles": "Cn1nc(N2CCC(=O)NC2=O)c2ncc(C3CCN(CC4CCN(c5cccc(S(=O)(=O)N6CCC(Nc7ncc(Cl)cn7)CC6)c5)CC4)CC3)cc21", "note": "[Example 215]", "values": [{"measurement": "IC50", "value": "500 to 2500", "unit": "nM"}]}, {"smiles": "CO[C@@H]1CN(S(=O)(=O)c2cccc(N3CCC(CN4CCC(c5ccc6c(N7CCC(=O)NC7=O)nn(C)c6c5)CC4)CC3)c2)CC[C@@H]1Nc1ncc(Cl)cn1", "note": "[Example 218, 1-(6-(1-((1-(3-(((3R,4S)-4-((5-chloropyrimidin-2-yl)amino)-3-methoxypiperidin-1-yl)sulfonyl)phenyl)piperidin-4-yl)methyl)piperidin-4-yl)-1-methyl-1H-indazol-3-yl)dihydropyrimidine-2,4(1H,3H)-dione]", "values": [{"measurement": "IC50", "value": "> 2500", "unit": "nM"}]}, {"smiles": "O=C1CCC(NC(=O)c2ccc(C3CCN(CC4CCN(c5cccc(S(=O)(=O)N6CCC(Nc7ncc(C(F)(F)F)cn7)CC6)c5)CC4)CC3)cn2)C(=O)N1", "note": "(stereo not shown) [Example 225, N-(2,6-dioxopiperidin-3-yl)-5-(1-((1-(3-((4-((5-(trifluoromethyl)pyrimidin-2-yl)amino)piperidin-1-yl)sulfonyl)phenyl)piperidin-4-yl)methyl)piperidin-4-yl)picolinamide]", "values": [{"measurement": "IC50", "value": "100 to 500", "unit": "nM"}]}, {"smiles": "Cn1nc(N2CCC(=O)NC2=O)c2ccc(C3CCN(CC4CCN(c5cccc(S(=O)(=O)N6[C@@H]7CC[C@H]6CC(Nc6ncc(Cl)cn6)C7)c5)CC4)CC3)cc21", "note": "(stereo partly drawn) [Example 227, 1-(6-(1-((1-(3-(((1R,5S)-3-((5-chloropyrimidin-2-yl)amino)-8-azabicyclo[3.2.1]octan-8-yl)sulfonyl)phenyl)piperidin-4-yl)methyl)piperidin-4-yl)-1-methyl-1H-indazol-3-yl)dihydropyrimidine-2,4(1H,3H)-dione]", "values": [{"measurement": "IC50", "value": "500 to 2500", "unit": "nM"}]}, {"smiles": "Cn1nc(N2CCC(=O)NC2=O)c2cnc(C3CCN(CC4CCN(c5cccc(S(=O)(=O)N6CCC(Nc7ncc(Cl)cn7)CC6)c5)CC4)CC3)cc21", "note": "[Example 228, 1-(6-(1-((1-(3-((4-((5-chloropyrimidin-2-yl)amino)piperidin-1-yl)sulfonyl)phenyl)piperidin-4-yl)methyl)piperidin-4-yl)-1-methyl-1H-pyrazolo[4,3-c]pyridin-3-yl)dihydropyrimidine-2,4(1H,3H)-dione]", "values": [{"measurement": "IC50", "value": "100 to 500", "unit": "nM"}]}, {"smiles": "Cn1nc(N2CCC(=O)NC2=O)c2ccc(C#CCN3CCN(c4cccc(S(=O)(=O)N5CCC(Nc6ncc(C(F)(F)F)cn6)CC5)c4)CC3)cc21", "note": "[Example 230, 1-(1-methyl-6-(3-(4-(3-((4-((5-(trifluoromethyl)pyrimidin-2-yl)amino)piperidin-1-yl)sulfonyl)phenyl)piperazin-1-yl)prop-1-yn-1-yl)-1H-indazol-3-yl)dihydropyrimidine-2,4(1H,3H)-dione]", "values": [{"measurement": "IC50", "value": "500 to 2500", "unit": "nM"}]}, {"smiles": "Cn1nc(N2CCC(=O)NC2=O)c2ccc(C#CCN3CCN(c4cccc(S(=O)(=O)N5CCC(Nc6ncc(Cl)cn6)CC5)c4)CC3)cc21", "note": "[Example 231, 1-(6-(3-(4-(3-((4-((5-chloropyrimidin-2-yl)amino)piperidin-1-yl)sulfonyl)phenyl)piperazin-1-yl)prop-1-yn-1-yl)-1-methyl-1H-indazol-3-yl)dihydropyrimidine-2,4(1H,3H)-dione]", "values": [{"measurement": "IC50", "value": "500 to 2500", "unit": "nM"}]}, {"smiles": "Cn1nc(N2CCC(=O)NC2=O)c2ccc(C3CCN(Cc4ccc(C#Cc5cccc(S(=O)(=O)N6CCC(Nc7ncc(C(F)(F)F)cn7)CC6)c5)cc4)CC3)cc21", "note": "[Example 232, 1-(1-methyl-6-(1-(4-((3-((4-((5-(trifluoromethyl)pyrimidin-2-yl)amino)piperidin-1-yl)sulfonyl)phenyl)ethynyl)benzyl)piperidin-4-yl)-1H-indazol-3-yl)dihydropyrimidine-2,4(1H,3H)-dione]", "values": [{"measurement": "IC50", "value": "100 to 500", "unit": "nM"}]}, {"smiles": "Cn1nc(N2CCC(=O)NC2=O)c2ccc(C3CCN(Cc4cccc(C#Cc5cccc(S(=O)(=O)N6CCC(Nc7ncc(C(F)(F)F)cn7)CC6)c5)c4)CC3)cc21", "note": "[Example 233]", "values": [{"measurement": "IC50", "value": "100 to 500", "unit": "nM"}]}, {"smiles": "Cn1nc(N2CCC(=O)NC2=O)c2ccc(CCCN3CCN(c4cccc(S(=O)(=O)N5CCC(Nc6ncc(C(F)(F)F)cn6)CC5)c4)CC3)cc21", "note": "[Example 235, 1-(1-methyl-6-(3-(4-(3-((4-((5-(trifluoromethyl)pyrimidin-2-yl)amino)piperidin-1-yl)sulfonyl)phenyl)piperazin-1-yl)propyl)-1H-indazol-3-yl)dihydropyrimidine-2,4(1H,3H)-dione]", "values": [{"measurement": "IC50", "value": "100 to 500", "unit": "nM"}]}, {"smiles": "O=C1CCC(NC(=O)c2ccc(C3CCN(CC4CCN(c5cccc(S(=O)(=O)N6CCC(Nc7ncc(C(F)(F)F)cn7)CC6)c5)CC4)CC3)cc2F)C(=O)N1", "note": "(stereo not shown) [Example 236, N-(2,6-dioxopiperidin-3-yl)-2-fluoro-4-(1-((1-(3-((4-((5-(trifluoromethyl)pyrimidin-2-yl)amino)piperidin-1-yl)sulfonyl)phenyl)piperidin-4-yl)methyl)piperidin-4-yl)benzamide]", "values": [{"measurement": "IC50", "value": "100 to 500", "unit": "nM"}]}, {"smiles": "O=C1CCC(NC(=O)c2ccc(C3CCN(CC4CCN(c5cccc(S(=O)(=O)N6CCC(Nc7ncc(Cl)cn7)CC6)c5)CC4)CC3)cc2F)C(=O)N1", "note": "(stereo not shown) [Example 237, 4-(1-((1-(3-((4-((5-chloropyrimidin-2-yl)amino)piperidin-1-yl)sulfonyl)phenyl)piperidin-4-yl)methyl)piperidin-4-yl)-N-(2,6-dioxopiperidin-3-yl)-2-fluorobenzamide]", "values": [{"measurement": "IC50", "value": "500 to 2500", "unit": "nM"}]}, {"smiles": "Cn1nc(N2CCC(=O)NC2=O)c2ccc(C3CCN(CC4CCN(c5cccc(S(=O)(=O)[C@H]6CC[C@H](Nc7ncc(C(F)(F)F)cn7)CC6)c5)CC4)CC3)cc21", "note": "[Example 240]", "values": [{"measurement": "IC50", "value": "> 2500", "unit": "nM"}]}, {"smiles": "Cn1nc(N2CCC(=O)NC2=O)c2ccc(C3CCN(Cc4ccc(S(=O)(=O)N5CCC(Nc6ncc(OC(F)F)cn6)CC5)cc4)CC3)c(F)c21", "note": "[Example 242, 1-(6-(1-(4-((4-((5-(difluoromethoxy)pyrimidin-2-yl)amino)piperidin-1-yl)sulfonyl)benzyl)piperidin-4-yl)-7-fluoro-1-methyl-1H-indazol-3-yl)dihydropyrimidine-2,4(1H,3H)-dione]", "values": [{"measurement": "IC50", "value": "500 to 2500", "unit": "nM"}]}, {"smiles": "Cn1nc(N2CCC(=O)NC2=O)c2ccc(C3CCN(CC4CCN(c5cccc(S(=O)(=O)N6CCC(Nc7ncc(CC(F)(F)F)cn7)CC6)c5)CC4)CC3)cc21", "note": "[Example 243, 1-(1-methyl-6-(1-((1-(3-((4-((5-(2,2,2-trifluoroethyl)pyrimidin-2-yl)amino)piperidin-1-yl)sulfonyl)phenyl)piperidin-4-yl)methyl)piperidin-4-yl)-1H-indazol-3-yl)dihydropyrimidine-2,4(1H,3H)-dione]", "values": [{"measurement": "IC50", "value": "500 to 2500", "unit": "nM"}]}]}
